In this test the test system is ROS17/2.8 cells. As to the kind of experiment: Cell growth of ROS17/2.8 cells by the MTT method (formed formazan). The note with it: for activity at 0.02 µM: Rattus norvegicus, 2×10^−5M Test Compound solution diluted 1000 fold, read-out: Amount of formed formazan, Solution 8 (Test Compound alone); for activity at 0.02 µM / Amount of formed formazan, Solution 10 (a group of a drug combination): percentage to Solution 7 addition group, about 48 hours, average ± standard deviation of four wells; for Relative index of Solution 10 (a group of a drug combination) / Amount of formed formazan, Solution 10 (a group of a drug combination): Test Compound in combination with 1α,25-dihydroxyvitamin D3; for Relative index of Solution 10 (a group of a drug combination) / Relative index of Solution 8 (Test Compound alone): amount of formed formazan, Solution 7 = 1.00. Type of test: cell-based, rat. The method, then:
100 μL of a 10% FCS-αMEM comprising either DMSO and ethanol (referred to as Solution 7, hereinafter), a Test Compound solution and ethanol (referred to as Solution 8, hereinafter), a 1α,25-dihydroxyvitamin D3 solution and DMSO (referred to as Solution 9, hereinafter) or a Test Compound solution and the 1α,25-dihydroxyvitamin D3 solution (referred to as Solution 10, hereinafter) was dispensed. The ROS17/2.8 cells were inoculated to a medium at a density of 5×10^3 cells/100 μL/well. After culture of the cells for about 48 hours, the effect of Test Compound and 1α,25-dihydroxyvitamin D3 on the cell growth of the ROS17/2.8 cells was evaluated using the MTT method. Namely, after culture of the cells for about 44 hours, an MTT solution (3-[4,5-dimethylthiazol-2-yl]-2,5-diphenyltetrazolium bromide 2 mg/mL) was added in an amount of 25 μL/well, and the cells were further cultured for four hours. After the medium was removed, DMSO was added in an amount of 100 μL/well so as to dissolve the formed formazan. The amount of the formed formazan was determined by measuring the absorbance (at 560 nm) of the solution by a microplate reader.
The 10% FCS-αMEM comprising Solution 7 was prepared by diluting DMSO by 1000 fold with the 10% FCS-αMEM, and diluting ethanol by 10000 fold with the 10% FCS-αMEM. The 10% FCS-αMEM comprising Solution 8 was prepared by diluting a 2×10^−5M Test Compound solution by 1000 fold with the 10% FCS-αMEM, and diluting ethanol by 10000 fold with the 10% FCS-αMEM. The 10% FCS-αMEM comprising Solution 9 was prepared by diluting 2×10^−3M 1α,25-dihydroxyvitamin D3 solution by 10000 fold with the 10% FCS-αMEM, and diluting DMSO by 1000 fold with the 10% FCS-αMEM. The 10% FCS-αMEM comprising Solution 10 was prepared by diluting a 2×10^−5M Test Compound solution by 1000 fold with the 10% FCS-αMEM, and diluting 2×10^−3M 1α,25-dihydroxyvitamin D3 solution by 10000 fold with the 10% FCS-αMEM.
The amount of the formed formazan in each solution addition group was obtained in terms of a percentage to the average value of the amounts of formed formazan in four wells in a Solution 7 addition group. All the determined values were shown in terms of the average value±standard deviation of the four wells of each solution addition group.
(Formazan colour is commonly taken as a measure of viable cells.)

For the molecule `Cc1nc(-c2ccc(OCCCCC(=O)Nc3ccc(/C(N)=N/O)cc3)cc2)c(C(C)C)s1` [Compound 18, N-hydroxy-4-{5-[4-(5-isopropyl-2-methyl-1,3-thiazol-4-yl)phenoxy]pentanoylamino}benzamidine], the activity at 0.02 µM is 106 ± 5%; the “Relative index of Solution 10 (a group of a drug combination)” value worked out at 1.15; the “Amount of formed formazan, Solution 10 (a group of a drug combination)” value (“Amount of formed formazan” below) is 115 ± 3.0 ## %; the “Relative index of Solution 8 (Test Compound alone)” value stood at 1.06.

Consider `Cc1nc(-c2ccc(OCCCCCN(C)c3ccc(/C(N)=N/O)cc3)cc2)c(C(C)C)s1` [Compound 19, N-hydroxy-4-{5-[4-(5-isopropyl-2-methyl-1,3-thiazol-4-yl)phenoxy]pentylmethylamino}benzamidine], for which the activity at 0.02 µM was determined as 108 ± 2.7%; the “Relative index of Solution 10 (a group of a drug combination)” value turned out to be 1.19; the “Amount of formed formazan” value is 119 ± 4.8 # %; the “Relative index of Solution 8 (Test Compound alone)” value turned out to be 1.08.

For the molecule `Cc1nc(-c2ccc(OCCCCCOc3ccc(/C(N)=N/O)c(F)c3)cc2)c(C(C)C)s1` [Compound 20, N-hydroxy-2-fluoro-4-{5-[4-(5-isopropyl-2-methyl-1,3-thiazol-4-yl)phenoxy]pentoxy}benzamidine], the activity at 0.02 µM was 106 ± 3.1%; the “Relative index of Solution 10 (a group of a drug combination)” value amounted to 1.13; the “Amount of formed formazan” value is reported as 113 ± 1.0 ## %; the “Relative index of Solution 8 (Test Compound alone)” value came to 1.06.

On to `CCc1sc(C2CCCCC2)nc1-c1ccc(OCCCCOc2ccc(/C(N)=N/O)cc2)cc1` [Compound 21, N-hydroxy-4-{4-[4-(2-cyclohexyl-5-ethyl-1,3-thiazol-4-yl)phenoxy]butoxy}benzamidine], for which the activity at 0.02 µM was 105 ± 2.5%; the “Relative index of Solution 10 (a group of a drug combination)” value is 1.11; the “Amount of formed formazan” value is listed as 111 ± 1.7 # %; the “Relative index of Solution 8 (Test Compound alone)” value is 1.05.

`Cc1nc(-c2ccc(OCc3cccc(COc4ccc(/C(N)=N/O)cc4)c3)cc2)c(C(C)C)s1` [Compound 22, N-hydroxy-4-{3-[4-(5-isopropyl-2-methyl-1,3-thiazol-4-yl)phenoxymethyl]benzyloxy}benzamidine]: the activity at 0.02 µM was found to be 110 ± 4.1%; the “Relative index of Solution 10 (a group of a drug combination)” value is reported as 1.22; the “Amount of formed formazan” value is on record as 122 ± 2.1 ## %; the “Relative index of Solution 8 (Test Compound alone)” value stood at 1.10.

For `Cc1nc(-c2ccc(OCCCCCOc3ccc(/C(N)=N/O)cc3)cc2)c(CCn2ccnc2)s1` [Compound 23, N-hydroxy-4-{5-[4-(5-(2-(imidazol-1-yl)ethyl)-2-methyl-1,3-thiazol-4-yl)phenoxy]pentoxy}benzamidine], the activity at 0.02 µM amounted to 107 ± 5.5%; the “Relative index of Solution 10 (a group of a drug combination)” value stood at 1.23; the “Amount of formed formazan” value is given as 123 ± 10.2 # %; the “Relative index of Solution 8 (Test Compound alone)” value was 1.07.

With `Cc1nc(-c2ccc(OCCCCCOc3ccc(/C(N)=N/O)cc3)cc2)c(CCNC(C)C)s1` [Compound 24, N-hydroxy-4-{5-[4-(5-(2-(isopropylamino)ethyl)-2-methyl-1,3-thiazol-4-yl)phenoxy]pentoxy}benzamidine], the activity at 0.02 µM amounted to 110 ± 4.4%; the “Relative index of Solution 10 (a group of a drug combination)” value is 1.18; the “Amount of formed formazan” value is on record as 118 ± 2.9 ## %; the “Relative index of Solution 8 (Test Compound alone)” value was found to be 1.10.

Consider `Cc1nc(-c2ccc(OCCCCCOc3ccc(/C(N)=N/O)cc3)cc2)c(CCNCCCOC(C)C)s1` [Compound 25, N-hydroxy-4-{5-[4-(5-(2-(3-(isopropoxy)propylamino)ethyl)-2-methyl-1,3-thiazol-4-yl)phenoxy]pentoxy}benzamidine], for which the activity at 0.02 µM worked out at 101 ± 3.2%; the “Relative index of Solution 10 (a group of a drug combination)” value is on record as 1.12; the “Amount of formed formazan” value is listed as 112 ± 1.5 # %; the “Relative index of Solution 8 (Test Compound alone)” value was 1.01.

Take `CCN(CC)CCc1sc(C)nc1-c1ccc(OCCCCCOc2ccc(/C(N)=N/O)cc2)cc1` [Compound 26, N-hydroxy-4-{5-[4-(5-(2-diethylaminoethyl)-2-methyl-1,3-thiazol-4-yl)phenoxy]pentoxy}benzamidine]: the activity at 0.02 µM worked out at 102 ± 2.6%; the “Relative index of Solution 10 (a group of a drug combination)” value is given as 1.13; the “Amount of formed formazan” value is listed as 113 ± 2.7 # %; the “Relative index of Solution 8 (Test Compound alone)” value stood at 1.02.

Regarding `CC(C)c1nc(-c2ccc(OCCCCCOc3ccc(/C(N)=N/O)cc3)cc2)c(CCN2CCSCC2)s1` [Compound 27, N-hydroxy-4-{5-[4-(2-isopropyl-5-(2-(thiomorpholin-4-yl)ethyl)-1,3-thiazol-4-yl)phenoxy]pentoxy}benzamidine], the activity at 0.02 µM came out at 98 ± 1.9%; the “Relative index of Solution 10 (a group of a drug combination)” value amounted to 1.12; the “Amount of formed formazan” value is 112 ± 0.9 ## %; the “Relative index of Solution 8 (Test Compound alone)” value stood at 0.98.

As for `CN(C)CCc1sc(C2CCCCC2)nc1-c1ccc(OCCCCCOc2ccc(/C(N)=N/O)cc2)cc1` [Compound 28, N-hydroxy-4-{5-[4-(2-cyclohexyl-5-(2-(dimethylamino)ethyl)-1,3-thiazol-4-yl)phenoxy]pentoxy}benzamidine], the activity at 0.02 µM stood at 99 ± 3.5%; the “Relative index of Solution 10 (a group of a drug combination)” value stood at 1.11; the “Amount of formed formazan” value is listed as 111 ± 2.0 # %; the “Relative index of Solution 8 (Test Compound alone)” value turned out to be 0.99.

In the case of `CN(C)c1nc(-c2ccc(OCCCCCOc3ccc(/C(N)=N/O)cc3)cc2)c(CCN2CCOCC2)s1` [Compound 29, N-hydroxy-4-{5-[4-(2-dimethylamino-5-(2-(morpholin-4-yl)ethyl)-1,3-thiazol-4-yl)phenoxy]pentoxy}benzamidine], the activity at 0.02 µM came to 102 ± 5.6%; the “Relative index of Solution 10 (a group of a drug combination)” value was 1.14; the “Amount of formed formazan” value is 114 ± 2.6 ## %; the “Relative index of Solution 8 (Test Compound alone)” value was found to be 1.02.

Turning to `CC(C)c1nc(-c2ccc(OCCCCCOc3ccc(/C(N)=N/O)cc3)cc2)c(CCN(C(=O)c2ccncc2)C2CC2)s1` [Compound 30, N-hydroxy-4-{5-[4-(5-(2-(cyclopropyl(pyridin-4-carbonyl)amino)ethyl}-2-isopropyl-1,3-thiazol-4-yl)phenoxy]pentoxy}benzamidine], the activity at 0.02 µM turned out to be 99 ± 5.3%; the “Relative index of Solution 10 (a group of a drug combination)” value was 1.13; the “Amount of formed formazan” value is 113 ± 1.2 ## %; the “Relative index of Solution 8 (Test Compound alone)” value is listed as 0.99.

`CNC(=O)c1sc(N)nc1-c1ccc(OCCCCCOc2ccc(/C(N)=N/O)cc2)cc1` [Compound 31, N-hydroxy-4-{5-[4-(2-amino-5-(N-methylcarbamoyl)-1,3-thiazol-4-yl)phenoxy]pentoxy}benzamidine]: the activity at 0.02 µM was determined as 101 ± 2.9%; the “Relative index of Solution 10 (a group of a drug combination)” value is reported as 1.10; the “Amount of formed formazan” value was 110 ± 0.4 # %; the “Relative index of Solution 8 (Test Compound alone)” value is reported as 1.01.

Take `Cc1nc(-c2ccc(OCCCCCOc3ccc(/C(N)=N/O)cc3)cc2)c(Cn2ccnc2)s1` [Compound 32, N-hydroxy-4-{5-[4-(5-(imidazol-1-ylmethyl)-2-methyl-1,3-thiazol-4-yl]phenoxy}pentoxy}benzamidine]: the activity at 0.02 µM came to 97 ± 3.3%; the “Relative index of Solution 10 (a group of a drug combination)” value came out at 1.10; the “Amount of formed formazan” value was 110 ± 2.4 # %; the “Relative index of Solution 8 (Test Compound alone)” value is reported as 0.97.

With `CCN(C)c1nc(-c2ccc(OCCCCCOc3ccc(/C(N)=N/O)cc3)cc2)c(CN2CCOCC2)s1` [Compound 33, N-hydroxy-4-{5-[4-{2-ethylmethylamino-5-(morpholin-4-ylmethyl)-1,3-thiazol-4-yl)phenoxy]pentoxy}benzamidine], the activity at 0.02 µM is 106 ± 1.7%; the “Relative index of Solution 10 (a group of a drug combination)” value was found to be 1.13; the “Amount of formed formazan” value is recorded as 113 ± 1.9 ## %; the “Relative index of Solution 8 (Test Compound alone)” value was 1.06.
